The values that follow come from US12509444B2, “Compounds and methods for CD73 modulation and indications therefor” (Plexxikon Inc., priority 2019, dated 2025).

Test [1] has as its target T1, Human CD73 (amino acid residues 27-549) (Homo sapiens, UniProt P21589).
T1 construct: Human CD73 (amino acid residues 27-549); His tag (N); made in house; host or cells: E. coli
T1 sequence (P21589 27-549): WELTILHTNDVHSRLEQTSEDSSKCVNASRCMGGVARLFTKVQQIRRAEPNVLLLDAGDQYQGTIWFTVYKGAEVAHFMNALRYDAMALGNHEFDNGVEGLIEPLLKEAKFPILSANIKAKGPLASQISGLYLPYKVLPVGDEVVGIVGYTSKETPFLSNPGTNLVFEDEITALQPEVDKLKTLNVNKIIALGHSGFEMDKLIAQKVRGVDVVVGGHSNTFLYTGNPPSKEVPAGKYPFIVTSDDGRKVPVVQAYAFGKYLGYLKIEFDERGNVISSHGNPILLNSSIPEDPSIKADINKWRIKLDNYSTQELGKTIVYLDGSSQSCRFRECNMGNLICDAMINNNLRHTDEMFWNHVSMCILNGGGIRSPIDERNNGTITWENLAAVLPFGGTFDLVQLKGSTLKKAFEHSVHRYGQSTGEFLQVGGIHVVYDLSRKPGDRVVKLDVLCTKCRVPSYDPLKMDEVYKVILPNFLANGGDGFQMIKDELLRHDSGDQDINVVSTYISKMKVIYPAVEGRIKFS
The experiment in a line: CD73 enzymatic assay (luciferase-based indirect assay, CellTiter-Glo). The format is biochemical. The settings on record: 0.4 nM CD73, 150 μM AMP, 1 hour at room temperature. The method, boiled down:
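His-tagged human CD73 (27-549) from E. coli, 0.4 nM, with 150 μM AMP in 50 mM HEPES pH 7.4, 0.01% Tween 20; 1 h at room temperature. AMP remaining read by CellTiter-Glo 2.0 luminescence with 1 μM final ATP after 30 min. IC50 from nonlinear regression of % inhibition.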

Test [2] concerns the target T2, human CD73 (Homo sapiens, UniProt P21589).
T2 construct: expressed in transfected cells
T2 sequence (P21589 27-549): T1 sequence (P21589 27-549)
In words: Inhibitor activity against CD73 in cell based assay (CD73 expressing CHO-K1 cells). The settings on record: CHO-K1 cells expressing human CD73, 150 μM AMP, 4 hours of incubation; read-out: CHO-K1 CELL VARIANT: CD73 IC50. The method, boiled down:
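Stably transfected CHO-K1 cells expressing human CD73 (1×10^4/well) incubated 4 h with compound (8-point 1:3 titration, top 10 μM final, 0.2% DMSO) and 150 μM AMP. Residual AMP in supernatant measured by CellTiter-Glo luminescence with 1 μM ATP after 30 min at room temperature; IC50 by nonlinear regression of percent inhibition vs high/low controls.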

A word on the IC50: it is the midpoint of a concentration-inhibition curve. Consider `N#Cc1ccc(S(=O)(=O)N[C@H]2CC[C@H](NC(=O)O[C@@H]3CCN(c4cn[nH]c(=O)c4Cl)C3)CC2)cc1` [P-0248, (R)-1-(5-chloro-6-oxo-1,6-dihydropyridazin-4-yl)pyrrolidin-3-yl ((1r,4R)-4-((4-cyanophenyl)sulfonamido)cyclohexyl)carbamate], for which the IC50 in test [1] and in test [2] was 0.001 to 10 µM each time.

Turning to `Cc1cccc(S(=O)(=O)N[C@H]2CC[C@H](NC(=O)O[C@@H]3CCN(c4cn[nH]c(=O)c4Cl)C3)CC2)c1` [P-0249, (R)-1-(5-chloro-6-oxo-1,6-dihydropyridazin-4-yl)pyrrolidin-3-yl ((1r,4R)-4-((3-methylphenyl)sulfonamido)cyclohexyl)carbamate], the IC50 in test [1] and in test [2] was 0.001 to 10 µM in each case.

On to `Cc1ccccc1S(=O)(=O)N[C@H]1CC[C@H](NC(=O)O[C@@H]2CCN(c3cn[nH]c(=O)c3Cl)C2)CC1` [P-0250, (R)-1-(5-chloro-6-oxo-1,6-dihydropyridazin-4-yl)pyrrolidin-3-yl ((1r,4R)-4-((2-methylphenyl)sulfonamido)cyclohexyl)carbamate], for which the IC50 in test [1] and in test [2] was 0.001 to 10 µM each time.

On to `COc1ccc(S(=O)(=O)N[C@H]2CC[C@H](NC(=O)O[C@@H]3CCN(c4cn[nH]c(=O)c4Cl)C3)CC2)cc1` [P-0251, (R)-1-(5-chloro-6-oxo-1,6-dihydropyridazin-4-yl)pyrrolidin-3-yl ((1r,4R)-4-((4-methoxyphenyl)sulfonamido)cyclohexyl)carbamate], for which the IC50 in test [1] and in test [2] was 0.001 to 10 µM throughout.

As to `COc1ccc(S(=O)(=O)N[C@H]2CC[C@H](NC(=O)O[C@@H]3CCN(c4cn[nH]c(=O)c4Cl)C3)CC2)cn1` [P-0252, (R)-1-(5-chloro-6-oxo-1,6-dihydropyridazin-4-yl)pyrrolidin-3-yl ((1r,4R)-4-((6-methoxypyridine)-3-sulfonamido)cyclohexyl) carbamate], the IC50 in test [1] and in test [2] was 0.001 to 10 µM throughout.

Regarding `O=C(N[C@H]1CC[C@H](NS(=O)(=O)c2ccc(C(F)(F)F)nc2)CC1)O[C@@H]1CCN(c2cn[nH]c(=O)c2Cl)C1` [P-0253, (R)-1-(5-chloro-6-oxo-1,6-dihydropyridazin-4-yl)pyrrolidin-3-yl ((1r,4R)-4-((6-(trifluoromethyl)pyridine)-3-sulfonamido)cyclohexyl) carbamate], the IC50 in test [1] and in test [2] was 0.001 to 10 µM in each case.

As to `O=C(N[C@H]1CC[C@H](NS(=O)(=O)c2ccc(C(F)(F)F)cc2)CC1)O[C@@H]1CCN(c2cn[nH]c(=O)c2Cl)C1` [P-0254, (R)-1-(5-chloro-6-oxo-1,6-dihydropyridazin-4-yl)pyrrolidin-3-yl ((1r,4R)-4-((4-(trifluoromethyl)phenyl)sulfonamido)cyclohexyl)carbamate], the IC50 in test [1] and in test [2] was 0.001 to 10 µM each time.

Consider `Cn1cc(S(=O)(=O)N[C@H]2CC[C@H](NC(=O)O[C@@H]3CCN(c4cn[nH]c(=O)c4Cl)C3)CC2)cn1` [P-0255, (R)-1-(5-chloro-6-oxo-1,6-dihydropyridazin-4-yl)pyrrolidin-3-yl ((1r,4R)-4-((1-methyl-1H-pyrazole)-4-sulfonamido)cyclohexyl) carbamate], for which the IC50 in test [1] and in test [2] was 0.001 to 10 µM in each case.

With `O=C(N[C@H]1CC[C@H](NC(=O)c2cccnc2)CC1)O[C@@H]1CCN(c2cn[nH]c(=O)c2Cl)C1` [P-0256, (R)-1-(5-chloro-6-oxo-1,6-dihydropyridazin-4-yl)pyrrolidin-3-yl ((1r,4R)-4-(nicotinamido)cyclohexyl) carbamate], the 50% inhibitory concentration (IC50) in test [1] and in test [2] was 0.001 to 10 µM in each case.

On to `O=C(N[C@H]1CC[C@H](NC(=O)C2CC2)CC1)O[C@@H]1CCN(c2cn[nH]c(=O)c2Cl)C1` [P-0257, (R)-1-(5-chloro-6-oxo-1,6-dihydropyridazin-4-yl)pyrrolidin-3-yl ((1r,4R)-4-(cyclopropanecarboxamido)cyclohexyl)carbamate], for which the IC50 in test [1] and in test [2] was 0.001 to 10 µM in each case.

`O=C(N[C@H]1CC[C@H](NC(=O)C2CCC2)CC1)O[C@@H]1CCN(c2cn[nH]c(=O)c2Cl)C1` [P-0258, (R)-1-(5-chloro-6-oxo-1,6-dihydropyridazin-4-yl)pyrrolidin-3-yl ((1r,4R)-4-(cyclobutanecarboxamido)cyclohexyl)carbamate]: the IC50 in test [1] and in test [2] was 0.001 to 10 µM in each case.

`O=C(N[C@H]1CC[C@H](NC(=O)C2CCCC2)CC1)O[C@@H]1CCN(c2cn[nH]c(=O)c2Cl)C1` [P-0259, (R)-1-(5-chloro-6-oxo-1,6-dihydropyridazin-4-yl)pyrrolidin-3-yl ((1r,4R)-4-(cyclopentanecarboxamido)cyclohexyl)carbamate]: the half-inhibitory concentration (IC50) in test [1] and in test [2] was 0.001 to 10 µM each time.

With `O=C(N[C@H]1CC[C@H](NC(=O)c2ccccn2)CC1)O[C@@H]1CCN(c2cn[nH]c(=O)c2Cl)C1` [P-0260, (R)-1-(5-chloro-6-oxo-1,6-dihydropyridazin-4-yl)pyrrolidin-3-yl ((1r,4R)-4-(picolinamido)cyclohexyl) carbamate], the IC50 in test [1] and in test [2] was 0.001 to 10 µM throughout.

For the compound `N#Cc1ccc(C(=O)N[C@H]2CC[C@H](NC(=O)O[C@@H]3CCN(c4cn[nH]c(=O)c4Cl)C3)CC2)cc1` [P-0261, (R)-1-(5-chloro-6-oxo-1,6-dihydropyridazin-4-yl)pyrrolidin-3-yl ((1r,4R)-4-(4-cyanobenzamido)cyclohexyl) carbamate], the IC50 in test [1] and in test [2] was 0.001 to 10 µM in each case.

`CC(C)(C)C(=O)N[C@H]1CC[C@H](NC(=O)O[C@@H]2CCN(c3cn[nH]c(=O)c3Cl)C2)CC1` [P-0262, (R)-1-(5-chloro-6-oxo-1,6-dihydropyridazin-4-yl)pyrrolidin-3-yl ((1r,4R)-4-pivalamidocyclohexyl) carbamate]: the half-maximal inhibitory concentration (IC50) in test [1] and in test [2] was 0.001 to 10 µM in each case.

With `CC(C)C(=O)N[C@H]1CC[C@H](NC(=O)O[C@@H]2CCN(c3cn[nH]c(=O)c3Cl)C2)CC1` [P-0263], the values for the IC50 in test [1] and in test [2] were 0.001 to 10 µM and 10 to 100 µM, respectively.

For the compound `O=C(N[C@H]1CC[C@H](NC(=O)c2ccncc2)CC1)O[C@@H]1CCN(c2cn[nH]c(=O)c2Cl)C1` [P-0264, (R)-1-(5-chloro-6-oxo-1,6-dihydropyridazin-4-yl)pyrrolidin-3-yl ((1r,4R)-4-(isonicotinamido)cyclohexyl) carbamate], the concentration for half-maximal inhibition (IC50) in test [1] and in test [2] was 0.001 to 10 µM each time.

Turning to `O=C(N[C@H]1CC[C@H](NC(=O)c2ccc(Cl)cc2)CC1)O[C@@H]1CCN(c2cn[nH]c(=O)c2Cl)C1` [P-0265, (R)-1-(5-chloro-6-oxo-1,6-dihydropyridazin-4-yl)pyrrolidin-3-yl ((1r,4R)-4-(4-chlorobenzamido)cyclohexyl) carbamate], the IC50 in test [1] and in test [2] was 0.001 to 10 µM each time.

Regarding `O=C(N[C@H]1CC[C@H](NC(=O)c2ccccc2Cl)CC1)O[C@@H]1CCN(c2cn[nH]c(=O)c2Cl)C1` [P-0266, (R)-1-(5-chloro-6-oxo-1,6-dihydropyridazin-4-yl)pyrrolidin-3-yl ((1r,4R)-4-(2-chlorobenzamido)cyclohexyl) carbamate], the IC50 in test [1] and in test [2] was 0.001 to 10 µM throughout.

Consider `O=C(N[C@H]1CC[C@H](NC(=O)c2c(F)cccc2F)CC1)O[C@@H]1CCN(c2cn[nH]c(=O)c2Cl)C1` [P-0267, (R)-1-(5-chloro-6-oxo-1,6-dihydropyridazin-4-yl)pyrrolidin-3-yl ((1r,4R)-4-(2,6-difluorobenzamido)cyclohexyl) carbamate], for which the IC50 in test [1] and in test [2] was 0.001 to 10 µM each time.

Turning to `Cc1cccc(F)c1C(=O)N[C@H]1CC[C@H](NC(=O)O[C@@H]2CCN(c3cn[nH]c(=O)c3Cl)C2)CC1` [P-0268, (R)-1-(5-chloro-6-oxo-1,6-dihydropyridazin-4-yl)pyrrolidin-3-yl ((1r,4R)-4-(2-fluoro-6-methylbenzamido)cyclohexyl) carbamate], the IC50 in test [1] and in test [2] was 0.001 to 10 µM throughout.

Turning to `CCN(CC)CC(=O)N[C@H]1CC[C@H](NC(=O)O[C@@H]2CCN(c3cn[nH]c(=O)c3Cl)C2)CC1` [P-0269, (R)-1-(5-chloro-6-oxo-1,6-dihydropyridazin-4-yl)pyrrolidin-3-yl ((1r,4R)-4-(2-(diethylamino)acetamido)cyclohexyl)carbamate], the IC50 in test [1] and in test [2] was 0.001 to 10 µM in each case.

On to `O=C(CN1CCOCC1)N[C@H]1CC[C@H](NC(=O)O[C@@H]2CCN(c3cn[nH]c(=O)c3Cl)C2)CC1` [P-0270, (R)-1-(5-chloro-6-oxo-1,6-dihydropyridazin-4-yl)pyrrolidin-3-yl ((1r,4R)-4-(2-morpholinoacetamido)cyclohexyl)carbamate], for which the IC50 in test [1] and in test [2] was 0.001 to 10 µM in each case.
